Paper PMC3726442 (PLoS ONE, 2013)

How the values were obtained:
[1] = Plasma concentrations of tamoxifen and its metabolites in breast cancer patients on tamoxifen, by HPLC-tandem mass spectrometry
Text: One hundred and thirty five Caucasian patients of Spanish descent recently diagnosed with BC were recruited from the center Fundación Tejerina-Centro de Patología de la Mama (Madrid). Premenopausal and postmenopausal women were enrolled when started on TAM as standard adjuvant therapy after undergoing primary surgery, radiation and adjuvant chemotherapy. Patients were excluded if they had started TAM therapy simultaneously with either adjuvant chemotherapy or adjuvant radiation therapy (or both) or if they were undergoing other adjuvant endocrine therapies. Patients who were pregnant or breast-feeding were also excluded from the study. […] Blood samples were collected within 3 to 60 months of initiating TAM treatment.
Venous blood was collected from all 135 subjects before taking their daily 20- mg dose of TAM. Ten milliliters of heparin plasma were separated by centrifugation and immediately stored at −20°C until analysis. In addition, one milliliter of an EDTA blood sample was taken for subsequent DNA extraction and genotyping. DNA was isolated from peripheral leukocytes using a QIAamp DNA Blood Mini Kit® (Qiagen, Madrid, Spain) according to the manufacturer’s instructions. The DNA concentration was determined and adjusted to 2–20 ng/ µL.
TAM and its metabolites were separated and quantified by high-pressure liquid chromatography-tandem mass spectrometry using an Agilent HPLC 1200 system. HPLC experiments were performed using a binary pump G1312A, a G1316A column oven, G1379B degasser and an automatic injector H-ALS G1367B. Mobile phase A and phase B consisted of 0.1% formic acid in water and acetonitrile, respectively. Mobile phases A and B were pumped through a ZORBAX Eclipse XDB-C18 column (150 mm×2.1 mm I.D., 3.5 µm, Agilent USA) at a flow rate of 0.2 mL/min using the gradient shown in Table 1. Separation was conducted at 30°C. 15- µL aliquots were injected and the autosampler needle was rinsed in acetonitrile/water solution (1∶1). The total run time was 20 min. During the first 4.0 and last 2.0 min, the eluate was removed using a divert valve to avoid endogenous compounds entering the mass spectrometer.
As a detector, we used an A 6410 Triple Quadrupole mass spectrometer (Agilent Technologies, USA) equipped with a heated electrospray ionization source (Thermo Fisher Scientific, Waltham, MA, USA) operating in positive ion mode. For quantification, multiple reaction monitoring (MRM) chromatograms were acquired using Mass Hunter software version B.01.04 (Agilent Technologies, USA). Positive ions were created at atmospheric pressure. Quadrupoles operated at unit resolution (0.7 Da).
A 300- µL volume of 1% formic acid in acetonitrile containing internal standards was added to a 100- µL serum aliquot. After vortexing and centrifugation, the clear supernatant was transferred to a HybridSPE column (Supelco) and the eluents stored at 2–8°C until analysis. Samples were analyzed in triplicate.
Descriptive statistics were calculated using standard methods. Metabolic ratios were calculated as the concentration of substrate/concentration of metabolite. The non-normal distribution of data was confirmed by the Kolmogorov-Smirnov test. Levels of TAM, metabolites and ratios between genotype groups were compared using Wilcoxon-Mann-Whitney or Kruskal-Wallis tests. All statistical tests (two-sided) were performed using SPSS software (version 18.0 SPSS, Chicago, IL). Significance was set at a p<0.05.

estrogen receptor = settings: cited from earlier work
[2] = cited from earlier work
[3] = all samples analyzed, n = 125, before daily 20 mg TAM dose

Compound: 4-hydroxy-tamoxifen [4-OH-tamoxifen]
- median plasma concentration [1, 3]: 6.75 ng/mL

Compound: CC/C(=C(\c1ccc(O)cc1)c1ccc(OCCNC)cc1)c1ccccc1 [Endoxifen, N-desmethyl-4-hydroxy-tamoxifen]
- estrogen receptor affinity relative to TAM (estrogen receptor): 100 fold
- endoxifen levels in wt/wt CYP2D6 relative to v/v CYP2D6 patients ([1]; CYP2D6 genotype subgroups, Figure 1): over two-fold
- mean plasma concentration (±SD) [1, 3]: 24.75 ± 19.37 ng/mL
- median plasma concentration [1, 3]: 19.11 ng/mL
- mean concentration relative to the 4OH-TAM mean concentration ([1]; all samples, n = 125): almost three times
- plasma concentration, mean ±SD ([1]; genotype CYP2D6 I/I, n = 1): 9.53 ± 0.00 ng/mL
- plasma concentration, median ([1]; genotype CYP2D6 I/I, n = 1): 9.53 ng/mL
- plasma concentration, range ([1]; genotype CYP2D6 I/I, n = 1): (9.53–9.53) ng/mL
- plasma concentration, mean ±SD ([1]; genotype CYP2D6 I/P, n = 8): 12.01 ± 5.84 ng/mL
- plasma concentration, median ([1]; genotype CYP2D6 I/P, n = 8): 10.00 ng/mL
- plasma concentration, range ([1]; genotype CYP2D6 I/P, n = 8): (4.46–21.02) ng/mL
- plasma concentration, mean ±SD ([1]; genotype CYP2D6 P/P, n = 2): 8.71 ± 6.41 ng/mL
- plasma concentration, median ([1]; genotype CYP2D6 P/P, n = 2): 8.71 ng/mL
- plasma concentration, range ([1]; genotype CYP2D6 P/P, n = 2): (4.18–13.24) ng/mL
- plasma concentration, mean ±SD ([1]; genotype CYP2D6 wt/I, n = 4): 26.87 ± 17.31 ng/mL
- plasma concentration, median ([1]; genotype CYP2D6 wt/I, n = 4): 20.64 ng/mL
- plasma concentration, range ([1]; genotype CYP2D6 wt/I, n = 4): (14.01–52.20) ng/mL
- plasma concentration, mean ±SD ([1]; genotype CYP2D6 wt/P, n = 26): 23.76 ± 25.21 ng/mL
- plasma concentration, median ([1]; genotype CYP2D6 wt/P, n = 26): 14.57 ng/mL
- plasma concentration, range ([1]; genotype CYP2D6 wt/P, n = 26): (5.01–107.10) ng/mL
- plasma concentration, mean ±SD ([1]; genotype CYP2D6 wt/wt, n = 78): 26.47 ± 17.89 ng/mL
- plasma concentration, median ([1]; genotype CYP2D6 wt/wt, n = 78): 21.21 ng/mL
- plasma concentration, range ([1]; genotype CYP2D6 wt/wt, n = 78): (4.03–95.87) ng/mL
- plasma concentration, mean ±SD ([1]; genotype CYP2D6 wtxN/P, n = 2): 36.09 ± 32.08 ng/mL
- plasma concentration, median ([1]; genotype CYP2D6 wtxN/P, n = 2): 36.09 ng/mL
- plasma concentration, range ([1]; genotype CYP2D6 wtxN/P, n = 2): (13.40–58.77) ng/mL
- plasma concentration, mean ±SD ([1]; genotype CYP3A4 wt/*1B, n = 3): 22.31 ± 10.86 ng/mL
- plasma concentration, median ([1]; genotype CYP3A4 wt/*1B, n = 3): 26.69 ng/mL
- plasma concentration, range ([1]; genotype CYP3A4 wt/*1B, n = 3): (9.95–30.30) ng/mL
- plasma concentration, mean ±SD ([1]; genotype CYP3A4 wt/*3, n = 2): 49.15 ± 21.86 ng/mL
- plasma concentration, median ([1]; genotype CYP3A4 wt/*3, n = 2): 49.15 ng/mL
- plasma concentration, range ([1]; genotype CYP3A4 wt/*3, n = 2): (33.69–64.61) ng/mL
- plasma concentration, mean ±SD ([1]; genotype CYP3A4 wt/*17, n = 9): 19.86 ± 24.88 ng/mL
- plasma concentration, median ([1]; genotype CYP3A4 wt/*17, n = 9): 11.94 ng/mL
- plasma concentration, range ([1]; genotype CYP3A4 wt/*17, n = 9): (4.46–84.57) ng/mL
- plasma concentration, mean ±SD ([1]; genotype CYP3A4 wt/wt, n = 107): 24.80 ± 19.03 ng/mL
- plasma concentration, median ([1]; genotype CYP3A4 wt/wt, n = 107): 19.12 ng/mL
- plasma concentration, range ([1]; genotype CYP3A4 wt/wt, n = 107): (4.03–107.10) ng/mL
- plasma concentration, mean ±SD ([1]; genotype CYP3A5 *3/*3, n = 117): 25.10 ± 19.66 ng/mL
- plasma concentration, median ([1]; genotype CYP3A5 *3/*3, n = 117): 19.12 ng/mL
- plasma concentration, range ([1]; genotype CYP3A5 *3/*3, n = 117): (4.03–107.10) ng/mL
- plasma concentration, mean ±SD ([1]; genotype CYP3A5 wt/*3, n = 6): 14.14 ± 7.56 ng/mL
- plasma concentration, median ([1]; genotype CYP3A5 wt/*3, n = 6): 13.61 ng/mL
- plasma concentration, range ([1]; genotype CYP3A5 wt/*3, n = 6): (5.40–23.01) ng/mL
- plasma concentration, mean ±SD ([1]; genotype SULT1A1 *2/*2, n = 15): 28.68 ± 24.18 ng/mL
- plasma concentration, median ([1]; genotype SULT1A1 *2/*2, n = 15): 19.82 ng/mL
- plasma concentration, range ([1]; genotype SULT1A1 *2/*2, n = 15): (4.57–95.87) ng/mL
- plasma concentration, mean ±SD ([1]; genotype SULT1A1 wt/*2, n = 46): 26.59 ± 19.97 ng/mL
- plasma concentration, median ([1]; genotype SULT1A1 wt/*2, n = 46): 22.58 ng/mL
- plasma concentration, range ([1]; genotype SULT1A1 wt/*2, n = 46): (4.18–107.10) ng/mL
- plasma concentration, mean ±SD ([1]; genotype SULT1A1 wt/wt, n = 60): 22.43 ± 17.79 ng/mL
- plasma concentration, median ([1]; genotype SULT1A1 wt/wt, n = 60): 17.47 ng/mL
- plasma concentration, range ([1]; genotype SULT1A1 wt/wt, n = 60): (4.03–89.98) ng/mL
- plasma concentration, mean ±SD ([1]; genotype SULT1A2 *2/*2, n = 16): 26.59 ± 23.20 ng/mL
- plasma concentration, median ([1]; genotype SULT1A2 *2/*2, n = 16): 20.76 ng/mL
- plasma concentration, range ([1]; genotype SULT1A2 *2/*2, n = 16): (4.18–95.87) ng/mL
- plasma concentration, mean ±SD ([1]; genotype SULT1A2 *2/*3, n = 13): 34.61 ± 20.35 ng/mL
- plasma concentration, median ([1]; genotype SULT1A2 *2/*3, n = 13): 32.02 ng/mL
- plasma concentration, range ([1]; genotype SULT1A2 *2/*3, n = 13): (8.94–74.06) ng/mL
- plasma concentration, mean ±SD ([1]; genotype SULT1A2 *3/*3, n = 5): 27.34 ± 21.30 ng/mL
- plasma concentration, median ([1]; genotype SULT1A2 *3/*3, n = 5): 21.02 ng/mL
- plasma concentration, range ([1]; genotype SULT1A2 *3/*3, n = 5): (12.13–64.61) ng/mL
- plasma concentration, mean ±SD ([1]; genotype SULT1A2 wt/*2, n = 33): 28.84 ± 23.78 ng/mL
- plasma concentration, median ([1]; genotype SULT1A2 wt/*2, n = 33): 23.22 ng/mL
- plasma concentration, range ([1]; genotype SULT1A2 wt/*2, n = 33): (4.46–107.10) ng/mL
- plasma concentration, mean ±SD ([1]; genotype SULT1A2 wt/*3, n = 16): 23.99 ± 15.32 ng/mL
- plasma concentration, median ([1]; genotype SULT1A2 wt/*3, n = 16): 19.02 ng/mL
- plasma concentration, range ([1]; genotype SULT1A2 wt/*3, n = 16): (7.80–51.61) ng/mL
- plasma concentration, mean ±SD ([1]; genotype SULT1A2 wt/wt, n = 38): 17.21 ± 11.79 ng/mL
- plasma concentration, median ([1]; genotype SULT1A2 wt/wt, n = 38): 14.78 ng/mL
- plasma concentration, range ([1]; genotype SULT1A2 wt/wt, n = 38): (4.03–58.77) ng/mL
- plasma concentration, mean ±SD ([1]; genotype SULT1E1 *2/*2, n = 5): 16.05 ± 8.07 ng/mL
- plasma concentration, median ([1]; genotype SULT1E1 *2/*2, n = 5): 20.60 ng/mL
- plasma concentration, range ([1]; genotype SULT1E1 *2/*2, n = 5): (6.74–23.01) ng/mL
- plasma concentration, mean ±SD ([1]; genotype SULT1E1 wt/*2, n = 28): 24.30 ± 20.87 ng/mL
- plasma concentration, median ([1]; genotype SULT1E1 wt/*2, n = 28): 18.04 ng/mL
- plasma concentration, range ([1]; genotype SULT1E1 wt/*2, n = 28): (4.18–95.87) ng/mL
- plasma concentration, mean ±SD ([1]; genotype SULT1E1 wt/wt, n = 88): 25.41 ± 19.51 ng/mL
- plasma concentration, median ([1]; genotype SULT1E1 wt/wt, n = 88): 19.12 ng/mL
- plasma concentration, range ([1]; genotype SULT1E1 wt/wt, n = 88): (4.03–107.10) ng/mL
- mean plasma concentration (±SD) ([1]; patients not receiving CYP2D6 inhibitors): 25.30 ± 19.39 ng/mL
- mean plasma concentration (±SD) ([1]; patients receiving CYP2D6 inhibitors concomitantly with TAM): 15.55 ± 17.77 ng/mL
- serum levels relative to 4OH-TAM [2]: 10 fold
